Assay results from patent US11331319B2, “Combination treatment for neuropsychiatric disorders” (UNIVERSITY OF MASSACHUSETTS, priority 2017, dated 2022).

Columns and labels:
[1] = system: N-methyl-D-aspartate receptor (NMDAR); details: cited from earlier work; for Finding: schizophrenia treatment; for Limitation: efficacy / Limitation: toxicity / therapeutic window: Table 3
[2] = system: young adults with uncomplicated type 1 diabetes; details: 7000 mg per day, one week; cited from earlier work
[3] = over-the-counter nutrition supplement; cited from earlier work
[4] = Body mass index (minocycline trial); assay type: in vivo, human; details: minocycline 200 mg per day, N = 27; week 16 value minus baseline value; mean
Source text: (§1) After screening, each eligible subject underwent baseline assessments including the Scale for the Assessment of Negative Symptoms (SANS), the Positive and Negative Syndrome Scale (PANSS), and blood draw for lab tests. Andreasen N C., “Negative symptoms in schizophrenia: Definition and reliability” Arch. Gen. Psychiatry 39:784-788 (1982); and Kay et al., “The positive and negative syndrome scale (PANSS) for schizophrenia” Schizophr. Bull. 13:261-276 (1987). Subjects continued to take risperidone at the same dose throughout the study, and were randomized in a 1:1 ratio to receive either minocycline (200 mg per day) or placebo for 16 weeks. At week 16, baseline assessments were repeated.
(§2) Anthropometric measures included weight, height and body mass index (BMI). Blood samples were obtained 11 h (±1 h) after the completion of the last meal the night before. Subjects were allowed to drink water during the fasting period. Laboratory assays for plasma levels of TNFα, and IL-1β were performed using the enzyme-linked immunosorbent assay (ELISA) (Bender Med Systems GmbH Campus Vienna Biocenter 2 A-1030 Vienna, Austria, Europe). Plasma levels of NO metabolites (nitrites and nitrates) were measured using the Griess method (Cortas & Wakid 1990) (Nanjing Jiancheng Bioengineering Institute, China).
(§3) Statistical analysis was performed using SPSS (version 24.0, IBM Corp, Armonk, N.Y.). […]

[5] = system: NO metabolites (nitrites and nitrates); test: Plasma levels of NO metabolites, Griess method (minocycline trial); assay type: in vivo, human; details: minocycline 200 mg per day, N = 27, fasting plasma, week 16 value minus baseline value, mean
Source text: as §1, §2, §3

[6] = cited from earlier work
[7] = system: patients with schizophrenia; test: 16-week adjunctive minocycline clinical trial: SANS and PANSS; assay type: in vivo, human; details: minocycline 200 mg per day added to risperidone, N = 27, week 16 value minus baseline value, mean
Source text: Adult patients with schizophrenia were recruited from the 1st Affiliated Hospital of Kunming Medical University, and the Mental Health Center of Yunnan Province, China, between June 2010 and November 2011. The diagnosis of schizophrenia was made by trained clinical interviewers using the structured clinical interview for DSM-IV diagnosis (SCID). First et al., In: Structured Clinical interview for DSM-IV Axis I Disorders-Clinician Version (SCID-CV). Washington, D.C.: American Psychiatry Press. (1996). Other inclusion criteria included: (1) age 18 to 40 years old; (2) disease duration ≤5 years; (3) on stable dose of risperidone for at least 4 weeks prior to screening; (4) a stable living arrangement. Exclusion criteria were: (1) being allergic to minocycline or tetracycline; (2) a psychiatric diagnosis other than schizophrenia (determined by SCID); (3) serious, unstable medical conditions; (4) diagnosis of diabetes mellitus; (4) female patients who were planning to become pregnant, or were pregnant or lactating were also excluded from the study. The study was approved by the ethics committee of the 1st Affiliated Hospital of Kunming Medical University.
as §1
Statistical analysis was performed using SPSS (version 24.0, IBM Corp, Armonk, N.Y.). Descriptive statistics were performed to summarize demographic and clinical characteristics of the study sample. Group comparisons were performed using the independent t test for continuous variables, and the Fisher exact test or Chi-square test for categorical variables. Analysis of covariance (ANCOVA) was used to compare change scores from baseline to week 16 between the two treatment groups controlling for baseline scores and potential confounding variables. For all analyses, a p value less than 0.05 (2-tailed) was used for statistical significance.

[8] = system: TNFα; test: Plasma TNFα by ELISA (minocycline trial); assay type: in vivo, human; details: minocycline 200 mg per day, N = 27; fasting plasma; week 16 value minus baseline value; mean; listed as Minocycline
Source text: as §1, §2, §3

[9] = system: IL-1β; test: Plasma IL-1β by ELISA (minocycline trial); assay type: in vivo, human; details: minocycline 200 mg per day, N = 27; fasting plasma; week 16 value minus baseline value; mean; listed as Minocycline
Source text: as §1, §2, §3

[10] = underlying neurologic disorders, co-administration of levodopa and sapropterin; cited from earlier work

C[C@@H](N)C(=O)O [D-Alanine]
Finding [1]: Improvement in overall

N[C@@H]1CONC1=O [D-Cycloserine]
Limitation: efficacy [1]: Decrease in efficacy over time
Limitation: toxicity / therapeutic window [1]: Very narrow therapeutic window
Finding [1]: Inconsistent finding; improvement

N[C@H](CO)C(=O)O [D-Serine]
Limitation: toxicity / therapeutic window [1]: Nephrotoxicity
Finding [1]: Improvement in overall

NCC(=O)O [Glycine]
Limitation: efficacy [1]: High doses required to reach therapeutic effects
Finding [1]: Improvement in overall

N=C(N)NCCC[C@H](N)C(=O)O [L-arginine]
Effect of supplementation [2]: improved oxidative stress status, increased blood flow and exercise responses
Safety and tolerability [3]: considered safe and well tolerated in general

CCCCCNCC(N)=O [Milacemide]
Finding [1]: No significant clinical benefit

CNCC(=O)O [Sarcosine]
Finding [1]: Improvment in overall

CN(C)c1ccc(O)c2c1C[C@H]1C[C@H]3[C@H](N(C)C)C(O)=C(C(N)=O)C(=O)[C@@]3(O)C(O)=C1C2=O [minocycline]
BMI, week 16 change [4]: 1.98 kg/m^2
Nitric oxide (plasma levels of NO metabolites), week 16 change [5]: -8.19 ± 18.09 µmol/L
Nitric oxide (plasma levels of NO metabolites), week 16 change ([5]; listed as Minocycline): -8.19 µmol/L
Tolerability ([6]; in humans): well tolerated in humans
Oral bioavailability ([6]; in vivo, po): high oral bioavailability
PANSS general psychopathology score, week 16 change [7]: −14.5
PANSS negative symptom score, week 16 change [7]: −10.8±5.9
PANSS positive symptom score, week 16 change [7]: −8.5
PANSS total score, week 16 change [7]: −32.9±17.1
SANS total score, week 16 change [7]: −31.2±25.5
PANSS negative symptom score, week 16 change ([7]; listed as Minocycline): −10.8
PANSS total score, week 16 change ([7]; listed as Minocycline): −32.9
SANS total score, week 16 change ([7]; listed as Minocycline): −31.2
TNF-α plasma level, week 16 change [8]: -0.97 pg/mL
IL-1β plasma level, week 16 change [9]: -0.99 pg/mL

C[C@H](O)[C@H](O)[C@H]1CNc2nc(N)[nH]c(=O)c2N1 [sapropterin]
Patients who experienced confusions, exacerbation of convulsions, over-stimulation, or irritability [10]: 3 patients
